Laboratory results as given in patent publication US9822099B2, “Triazole derivatives” (priority 2013, dated 2017).
Read-outs that look alike come from different tables or passages of the source. Marks after values point to notes of the source that are not given here.

Key:
Botrytis cinerea = experiment: Example A: in vivo preventive test on Botrytis cinerea (grey mould); conditions: gherkin plants, preventive spray, evaluated 4 to 5 days after inoculation
Method: (§1) The young plants of gherkin are treated by spraying the active ingredient prepared as described above. Control plants are treated only with an aqueous solution of acetone/Dimethyl sulfoxide/Tween®. After 24 hours, the plants are contaminated by spraying the leaves with an aqueous suspension of Botrytis cinerea spores.

Puccinia recondita = experiment: Example B: in vivo preventive test on Puccinia recondita (brown rust on wheat); conditions: wheat plants, preventive spray, evaluated 11 days after inoculation
Method: as §1, with “wheat” for “gherkin”, “Puccinia recondita” for “Botrytis cinerea”

Pyrenophora teres = experiment: Example C: in vivo preventive test on Pyrenophora teres (net blotch on barley); conditions: barley plants, preventive spray, evaluated 14 days after inoculation
Method: as §1, with “barley” for “gherkin”, “Pyrenophora teres” for “Botrytis cinerea”

Septoria tritici = experiment: Example D: in vivo preventive test on Septoria tritici (leaf spot on wheat); conditions: wheat plants, preventive spray, evaluated 24 days after inoculation
Method: as §1, with “wheat” for “gherkin”, “Septoria tritici” for “Botrytis cinerea”

Sphaerotheca fuliginea = experiment: Example E: in vivo preventive test on Sphaerotheca fuliginea (powdery mildew on cucurbits); conditions: gherkin plants, preventive spray, evaluated 15 days after inoculation
Method: as §1, with “Sphaerotheca fuliginea” for “Botrytis cinerea”

Uromyces appendiculatus = experiment: Example F: in vivo preventive test on Uromyces appendiculatus (bean rust); conditions: bean plants, preventive spray, evaluated 11 days after inoculation
Method: as §1, with “bean” for “gherkin”, “Uromyces appendiculatus” for “Botrytis cinerea”

[1] = system: Blumeria graminis f. sp. hordei; experiment: Example G: Blumeria test (barley)/preventive; assay type: in vivo; conditions: 500 ppm of active ingredient, preventive, evaluated 7 days after inoculation
Method: (§2) Solvent: 49 parts by weight of N,N-dimethylacetamide Emulsifier: 1 part by weight of alkylaryl polyglycol ether To produce a suitable preparation of active compound, 1 part by weight of active compound or active compound combination is mixed with the stated amounts of solvent and emulsifier, and the concentrate is diluted with water to the desired concentration. To test for preventive activity, young plants are sprayed with the preparation of active compound or active compound combination at the stated rate of application. After the spray coating has been dried, the plants are dusted with spores of Blumeria graminis f. sp. hordei.

Fusarium culmorum = experiment: Example H: Fusarium culmorum-test (wheat)/curative; assay type: in vivo; conditions: 500 ppm of active ingredient, curative, evaluated 5 days after inoculation
Method: (§3) Solvent: 49 parts by weight of N,N-dimethylacetamide
(§4) Emulsifier: 1 part by weight of alkylaryl polyglycol ether
(§5) To produce a suitable preparation of active compound, 1 part by weight of active compound or active compound combination is mixed with the stated amounts of solvent and emulsifier, and the concentrate is diluted with water to the desired concentration.
To test for curative activity, young plants are slightly injured by using a sandblast and afterwards they are sprayed with a conidia suspension of Fusarium culmorum and placed for 24 hours in a greenhouse under a translucent incubation cabinet at a temperature of approximately 22° C. and a relative atmospheric humidity of approximately 100% and are subsequently sprayed with the preparation of active compound at the stated rate of application.
After the spray coating has been dried, the plants remain in the greenhouse under translucent incubation cloches at a temperature of approximately 22° C. and a relative atmospheric humidity of approximately 100%.
(§6) The test is evaluated 5 days after the inoculation. 0% means an efficacy which corresponds to that of the untreated control, while an efficacy of 100% means that no disease is observed.

Fusarium graminearum = assay type: in vivo; conditions: 500 ppm of active ingredient; barley, preventive; evaluated 5 days after inoculation
[2] = system: Fusarium nivale (var. majus); experiment: Example J: Fusarium nivale (var. majus)-test (wheat)/preventive; assay type: in vivo; conditions: 500 ppm of active ingredient, preventive, evaluated 5 days after inoculation
Method: as §3, §4, §5
To test for preventive activity, young plants are sprayed with the preparation of active compound or active compound combination at the stated rate of application.
After the spray coating has been dried, the plants are slightly injured by using a sandblast and afterwards they are sprayed with a conidia suspension of Fusarium nivale (var. majus).
The plants are placed in the greenhouse under a translucent incubation cabinet at a temperature of approximately 10° C. and a relative atmospheric humidity of approximately 100%.
as §6

Leptosphaeria nodorum = experiment: Example K: Leptosphaeria nodorum test (wheat)/preventive; assay type: in vivo; conditions: 500 ppm of active ingredient, preventive, evaluated 8 days after inoculation
Method: as §2, with “sprayed” for “dusted”, “a spore suspension” for “spores”, “Leptosphaeria nodorum.” for “Blumeria graminis f. sp. hordei.”

Phakopsora pachyrhizi = experiment: Example L: Phakopsora test (soybeans)/preventive; assay type: in vivo; conditions: 100 ppm of active ingredient, preventive, evaluated 7 days after inoculation
Venturia inaequalis = experiment: Example O: Venturia test (apples)/preventive; assay type: in vivo; conditions: 100 ppm of active ingredient, preventive, evaluated 10 days after inoculation
Method: Solvent: 24.5 parts by weight of acetone • 24.5 parts by weight of dimethylacetamide Emulsifier: 1 part by weight of alkylaryl polyglycol ether To produce a suitable preparation of active compound, 1 part by weight of active compound is mixed with the stated amounts of solvent and emulsifier, and the concentrate is diluted with water to the desired concentration. To test for preventive activity, young plants are sprayed with the preparation of active compound at the stated rate of application.

Pyricularia oryzae = assay type: in vivo; conditions: 500 ppm of active ingredient; rice, preventive; evaluated 8 days after inoculation
[3] = method [a]: LC-MS at pH 2.7, 0.1% formic acid in water / acetonitrile gradient

| SMILES | Eff. % (Botrytis cinerea; 500 ppm of active ingredient) [%] | Eff. % (Puccinia recondita; 500 ppm of active ingredient) [%] | Eff. % (Pyrenophora teres; 500 ppm of active ingredient) [%] | Eff. % (Septoria tritici; 500 ppm of active ingredient) [%] | Eff. % (Sphaerotheca fuliginea; 500 ppm of active ingredient) [%] | Eff. % (Uromyces appendiculatus; 500 ppm of active ingredient) [%] | Eff. % [1] [%] | Eff. % (Fusarium culmorum) [%] | Eff. % (Fusarium graminearum) [%] | Eff. % [2] [%] | Eff. % (Leptosphaeria nodorum) [%] | Eff. % (Phakopsora pachyrhizi) [%] | Eff. % (Venturia inaequalis) [%] | LogP (pH 2.7) | Eff. % (Pyricularia oryzae) [%] | Eff. % (Botrytis cinerea; 100 ppm of active ingredient) [%] | Eff. % (Puccinia recondita; 100 ppm of active ingredient) [%] | Eff. % (Septoria tritici; 100 ppm of active ingredient) [%] | Eff. % (Sphaerotheca fuliginea; 100 ppm of active ingredient) [%] | Eff. % (Uromyces appendiculatus; 100 ppm of active ingredient) [%] | also measured |
| --- | --- | --- | --- | --- | --- | --- | --- | --- | --- | --- | --- | --- | --- | --- | --- | --- | --- | --- | --- | --- | --- |
| OC(Cc1c(Cl)cncc1Cl)(Cn1cncn1)C1(F)CC1 (racemic) [Example I-62] | 100 | 98 | 100 | 100 | 100 | 100 | 100 | 83 | 100 | 100 | 100 | 99 | 100 | 1.86^[a] | – | – | – | – | – | – | – |
| OC(Cc1cc(F)ncc1Cl)(Cn1cncn1)C1(F)CC1 (racemic) [Example I-65] | 100 | 98 | 100 | 100 | 100 | 100 | 100 | 100 | 100 | 100 | 100 | 100 | 100 | 1.77^[a] | 86 | – | – | – | – | – | – |
| CC(C)(F)C(O)(Cc1ccncc1Cl)Cn1cncn1 (racemic) [Example I-76] | 100 | 100 | 79 | 100 | 100 | 100 | 100 | – | 86 | 100 | – | 100 | 74 | 1.20^[a] | 71 | – | – | – | – | – | – |
| OC(Cc1ccnc(Cl)c1Cl)(Cn1cncn1)C1(Cl)CC1 (racemic) [Example I-82] | 100 | 98 | 97 | 100 | 100 | 100 | 100 | – | 100 | 100 | 100 | 100 | 95 | 2.39^[a] | 100 | – | – | – | – | – | – |
| CC(CF)(CF)C(O)(Cc1ccncc1Cl)Cn1cncn1 (stereo not drawn) [Example I-6] | – | – | – | – | – | – | 100 | 100 | 100 | 100 | 100 | 95 | 100 | 1.54^[a] | 83 | 76 | 81 | 100 | 100 | 100 | – |
| OC(Cc1ccncc1Cl)(Cn1cncn1)C1(F)CC1 (stereo not drawn) [Example I-7] | – | – | – | – | – | – | 100 | 100 | 100 | 100 | 100 | 94 | 98 | – | 100 | 100 | 94 | 98 | 100 | 100 | Eff. % (Pyrenophora teres; 100 ppm of active ingredient): 92%; LogP [3]: 1.29^[a] |
| CC1(C(O)(Cc2cccnc2Cl)Cn2cncn2)CC1 (stereo not drawn) [Example I-8] | – | – | – | – | – | – | 100 | 100 | 100 | 100 | 92 | 95 | 100 | – | 100 | 87 | 94 | 94 | 100 | 100 | LogP [3]: 1.73^[a] |
| OC(Cc1cccnc1Cl)(Cn1cncn1)C1(F)CC1 (stereo not drawn) [Example I-25] | – | – | – | – | – | – | 100 | 100 | 100 | 100 | 100 | 99 | 89 | 1.42^[a] | – | 99 | 100 | 100 | 100 | 100 | Eff. % (Pyrenophora teres; 100 ppm of active ingredient): 97% |
| CC1(C(O)(Cc2ccncc2Cl)Cn2cncn2)CC1 (stereo not drawn) [Example I-49] | 99 | 100 | 93 | 100 | 100 | 81 | 100 | 100 | 100 | 100 | 100 | 96 | 100 | 1.57^[a] | – | – | – | – | – | – | – |
| OC(Cc1nccnc1I)(Cn1cncn1)C1(Cl)CC1 (stereo not drawn) [Example I-54] | 100 | 97 | – | 100 | 100 | 100 | 100 | – | 100 | 100 | – | 99 | 89 | 2.07^[a] | 78 | – | – | – | – | – | – |
| OC(Cc1ccnc(Cl)c1F)(Cn1cncn1)C1(Cl)CC1 (stereo not drawn) [Example I-60] | 100 | 98 | 100 | 97 | 100 | 100 | 100 | 83 | 100 | 100 | 100 | 100 | 100 | 2.02^[a] | – | – | – | – | – | – | – |
